Assay results taken from paper PMC4871484, “Functional Green-Tuned Proteorhodopsin from Modern Stromatolites” (PLoS ONE, 2016).

Target: T1, E17R (E17-PR), green proteorhodopsin (Exiguobacterium sp. S17, UniProt S3FWZ0)
T1 sequence (S3FWZ0 1-248): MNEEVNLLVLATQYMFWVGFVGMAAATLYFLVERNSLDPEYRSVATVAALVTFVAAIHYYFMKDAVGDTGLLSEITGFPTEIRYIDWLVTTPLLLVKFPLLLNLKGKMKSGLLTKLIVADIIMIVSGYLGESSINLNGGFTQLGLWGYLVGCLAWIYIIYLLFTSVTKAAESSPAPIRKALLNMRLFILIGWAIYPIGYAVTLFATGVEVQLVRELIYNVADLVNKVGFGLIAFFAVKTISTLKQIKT
Experiment: UV-vis absorption of purified holoprotein; hydroxylamine bleaching to retinal oxime
Assay type: binding
Details: covalent; Schiff base with lysine; […] HEPES, […] NaCl, […] DDM; room temperature

CC1=C(/C=C/C(C)=C/C=C/C(C)=C/C=O)C(C)(C)CCC1 [retinal]
UV-vis absorption of purified holoprotein; hydroxylamine bleaching to retinal ox: Expression and purification of E17R yielded after purification and retinal addition a protein with λmax
